Measured values reported in US20100144660A1, “USE OF N,N-DIETHYL-2-[-4-(PHENYLMETHYL)-PHENOXY]ETHANAMINE MONOHYDROCHLORIDE (DPPE) IN CANCER THEREAPY” (YM Biosciences Inc., priority 2001, published 2010).
Read-outs that look alike come from different tables or passages of the source.

Key:
[1] = tested on: breast cancer patients who relapsed following surgery; assay: Phase III clinical trial: DPPE and doxorubicin versus doxorubicin alone, survival analysis by subgroup; type: in vivo, human; conditions: for 1 yr (one year survival) / MST (median survival time): only ER known; for median survival time (MST) / one year survival: duration 6-36 month, prior chemotherapy group (FIG. 27), DPPE added to doxorubicin versus doxorubicin alone
Description: Two arms of treatment were involved in this trial. Patients were randomly selected to participate in either arm. In one arm, patients were treated with DPPE and doxorubicin, in the other arm patients were treated with doxorubicin alone.
In the trial, patients were permitted to stay on doxorubicin for a maximum of about 7 cycles (5 months). […] DPPE was administered to patients in the amount of 6 mg/kg (or 240 mg/M^2) over 80 minutes, with the concurrent administration of doxorubicin over the last 20 minutes at a […] of 60-90 mg/M^2.
The patients in the trial were assigned to subgroups based on duration, i.e. the length of time between the initial diagnosis of breast cancer and the appearance of advanced disease. The subgroups were: (i) less than or equal to 6 months, (ii) between 6 months and 36 months and (iii) more than 36 months.
For this subgroup analysis, the 3 duration subgroups (<6 m, 6-36 m and >36 m) are further subdivided into groups of patients that (i) have undergone prior chemotherapy, and (ii) have not undergone prior chemotherapy.
For this analysis, the patients in the trial were divided into subgroups based on Eastern Cooperative Oncology Group (ECOG) Performance Status (PS).
In this example, the patients were divided into subgroups of those patients that originated from Eastern Europe and those that originated mainly from Western Europe and North America.

[2] = tested on: MCF-7 breast cancer cells; conditions: ER−/AEBS+ or ER+/AEBS+ cells; cited from earlier work
[3] = tested on: intracellular histamine receptors; conditions: cited from earlier work
[4] = tested on: normal and malignant cells; conditions: cited from earlier work
[5] = tested on: hormone-unresponsive metastatic prostate cancer; conditions: intravenous infusion of DPPE over approximately one hour prior to cyclophosphamide; cited from earlier work
[6] = cited from earlier work
[7] = competition assays; cited from earlier work
[8] = Geographically restricted subset
[9] = Geographically restricted subset (Eastern Europe excluded)
[10] = duration <36 m, ER+ (known ER status)
[11] = duration <36 m, ER− (known ER status)
[12] = duration >36 M, ER+ (known ER status)
[13] = duration >36 m, ER− (known ER status)
[14] = response PD (progressive disease)

For `COc1cccc2c1C(=O)c1c(O)c3c(c(O)c1C2=O)C[C@@](O)(C(=O)CO)C[C@@H]3O[C@H]1C[C@H](N)[C@H](O)[C@H](C)O1` [DOX, doxorubicin], the 1 yr survival ([1]; ECOG PS 0) was 75%, the MST ([1]; ECOG PS 0) was 20.3 m and the 1 yr survival ([1]; ECOG PS 1) was 48%. It also gave an MST ([1]; ECOG PS 1) of 11.7 m, a 1 yr survival ([1]; ECOG PS 2) of 33% and an MST ([1]; ECOG PS 2) of 5.9 m. For the same molecule, the “1 yr (one year survival)” value ([1]; ER+ patients) was 62%, the “MST (median survival time)” value ([1]; ER+ patients) was 16.5 m and the “1 yr (one year survival)” value ([1]; ER− patients) was 36%. The “MST (median survival time)” value ([1]; ER− patients) was 9.5 m, the “Survival by ECOG = 0, 1 yr” value [1, 8] was 63% and the “Survival by ECOG = 0, MST” value [1, 8] was 16.5 m. For the same molecule, the “Survival by ECOG = 1, 1 yr” value [1, 8] was 42%, the “Survival by ECOG = 1, MST” value [1, 8] was 11.5 m and the “Survival by ER status ER−, 1 yr” value [1, 8] was 39%. For the same molecule, the “Survival by ER status ER−, MST” value [1, 8] was 9 m, the “Survival by ER+, 1 yr” value [1, 8] was 55% and the “Survival by ER+, MST” value [1, 8] was 15.5 m. The “Survival by duration: 6-36 m, MST” value [1, 8] was 9 m, the “Survival by response: CR/PR, 1 yr” value [1, 8] was 62% and the “Survival by response: SD, 1 yr” value [1, 8] was 53%. The “Survival by response: SD, MST” value [1, 8] was 12 m, the “Survival for ER+ vs ER− within the arm” value [1, 8] was “ER+ considerably better than ER−” and the “Overall survival 1 yr” value [1, 9] was 50%. The “Overall survival MST” value [1, 9] was 12 m, the “Overall survival 1 yr” value ([1]; Whole trial (Table 10)) was 60% and the “Overall survival MST” value ([1]; Whole trial (Table 10)) was 15.6 m. The “Survival by ECOG = 0, 1 yr” value ([1]; Whole trial (Table 10)) was 75%, the “Survival by ECOG = 0, MST” value ([1]; Whole trial (Table 10)) was 20.3 m and the “Survival by ECOG = 1, 1 yr” value ([1]; Whole trial (Table 10)) was 48%. The “Survival by ECOG = 1, MST” value ([1]; Whole trial (Table 10)) was 11.7 m, the “Survival by ER status ER−, 1 yr” value ([1]; Whole trial (Table 10)) was 36% and the “Survival by ER status ER−, MST” value ([1]; Whole trial (Table 10)) was 9.5 m. For the same molecule, the “Survival by ER+, 1 yr” value ([1]; Whole trial (Table 10)) was 62%, the “Survival by ER+, MST” value ([1]; Whole trial (Table 10)) was 16 m and the “Survival by duration: 6-36 m, MST” value ([1]; Whole trial (Table 10)) was 11.5 m. The “Survival by response: CR/PR, 1 yr” value ([1]; Whole trial (Table 10)) was 74%, the “Survival by response: SD, 1 yr” value ([1]; Whole trial (Table 10)) was 59% and the “Survival by response: SD, MST” value ([1]; Whole trial (Table 10)) was 17 m. The “Survival for ER+ vs ER− within the arm” value ([1]; Whole trial (Table 10)) was “ER+ considerably better than ER−”, the “lived on average (survival)” value ([1]; all breast cancer patients of the trial) was “fifteen” and the “median survival time (MST)” value [1] was 10.7 months. It also gave an one year survival [1] of 40%, a 1 yr survival ([1]; duration <6 m) of 56% and an MST ([1]; duration <6 m) of 15 m. It also gave a 1 yr survival [1, 10] of 52%, an MST [1, 10] of 15.5 m and a 1 yr survival [1, 11] of 36%. It also gave an MST [1, 11] of 9.5 m, a 1 yr survival ([1]; duration >6 but <36 m) of 45% and an MST ([1]; duration >6 but <36 m) of 11.5 m. The 1 yr survival [1, 12] was 82%, the MST [1, 12] was 18 m and the 1 yr survival ([1]; duration >36 m) was 77%. The MST ([1]; duration >36 m) was 20.3 m, the 1 yr survival [1, 13] was 66% and the MST [1, 13] was 12 m. The “median survival time (FIG. 22)” value ([1]; duration >36 months) was 28.6356, the “median survival time (FIG. 21)” value ([1]; duration of ≦36 months) was 12.1973 and the 1 yr survival ([1]; response CR/PR) was 74%. The MST ([1]; response CR/PR) was 28.5 m, the 1 yr survival [1, 14] was 34% and the MST [1, 14] was 10.5 m. For the same molecule, the 1 yr survival ([1]; response SD (stable disease)) was 59% and the MST ([1]; response SD (stable disease)) was 17 m.

For `CCN(CC)CCOc1ccc(Cc2ccccc2)cc1.Cl` [DPPE, N,N-diethyl-2-[-4-(phenylmethyl)-phenoxy]ethanamine monohydrochloride], the “in vitro growth of MCF-7 breast cancer cells” value [2] is given as “inhibit”, the “antagonism of intracellular histamine receptors” value [3] is given as “potent antagonist” and the “cell proliferation in vivo” value ([4]; animal model) is given as “inhibit normal cell proliferation while promoting malignant cell proliferation”. The “interaction with doxorubicin (Adriamycin)” value ([4]; tumour-bearing animals treated concurrently with DPPE) was “act synergistically”, the “Survival by response: PD, comparison of arms” value ([1]; Geographically restricted subset, DPPE/DOX versus DOX) was “DPPE a little better at first” and the “survival benefit from the addition of DPPE” value ([1]; duration 6-36 m, no prior chemotherapy group) was “little, if any, benefit”. The “median survival time (MST)” value [1] was over 17.5 months, the one year survival [1] was “under 70%” and the “survival benefit from the addition of DPPE” value ([1]; duration >36 m, prior and no prior chemotherapy subgroups) was “neither of the subgroups show any benefit”. The “effect on anti-cancer activity and toxicity of cyclophosphamide” value [5] was “potentiate the anti-cancer activity and ameliorate the toxicity”, the toxicity ([6]; 4 mg/kg (160 mg/M^2) over 1 hour intravenously) was “non-toxic” and the clinical side effects ([6]; 8 mg/M^2 over 24 to 72 hours) was “do not result in clinical side effects”. For the same molecule, the toxicity ([6]; 240 mg/M^2 over 1 hour) was “may result in CNS toxicity”.

For `CCN(CC)CCOc1ccc(C(=O)c2ccc(F)cc2)cc1` [DFPE, N,N-diethyl-2-[4-(4′-fluorophenone)-phenoxy]ethanamine], the “potency compared to DPPE” value [7] is listed as “greater potency”.
